Entries after “also recorded” stand apart in the source; their conditions may differ.
Key:
[1] = system: 1:1 (NHF:H35) microtissues; settings: cultured four hours, then overnight at 37° C. in 5 mM EDTA in PBS
Procedure: To determine if extracellular calcium disintegrated the microtissues, 1:1 (NHF: H35) microtissues were cultured for 4 hours. Culture media was removed, and microtissues were washed with PBS, and then incubated overnight at 37° C. in 5 mM EDTA in PBS. Control samples were kept in regular culture media or PBS.
To examine if enhanced power was transduced through cell-cell interactions 1:1 (NHF:H35) were cultured for four hours and then incubated in EDTA to destabilize the calcium dependent cell-cell adhesions. Control samples were kept in regular culture media or PBS.

[2] = system: rat hepatocyte cell line (H35); test: toroid-on-cone cell power assay, homotypic H35 toroids; format: cell-based
Procedure: (§1) Toroid molds suitable for side view microcopy were designed as previously described (9). Toroid molds were designed using the computer aided design (CAD) software Solid Works (Solid Works Corporation, Concord, Mass., USA). The mold was designed with 12 features to create wells. Each feature is a rounded edged (350 μm in diameter) cylinder (1.1 mm) with a cone indent in the center. The slope of the central cone was 65° and it is 650 μm in diameter. CAD files were used to produce thermowax molds with a rapid prototyping machine (3D Systems Corporation, Valencia, Calif.).
(§2) Wax molds were used to cast 13% polyacrylamide gels. Gels were removed from wax molds and transferred to six well culture plates. Each of the resulting wells is a circular trough confined by the hydrogel wall at the outer edge of the trough and by a conical peg on the inner edge of the trough. The gels were rinsed with fresh culture medium and then equilibrated overnight at 37° C. in 4 ml of DMEM supplemented with 1% penicillin/streptomycin (pen/strep). After equilibration, the medium was removed, and the gels were rinsed with fresh medium.
(§3) NHFs (passage 4-10), derived from neonatal foreskins, and H35s (passage 5-11) were grown in T-175 flasks in DMEM with 10% FBS and 1% pen/strep at 37° C. and 10% CO2. Cells were removed from flasks using a standard trypsin process. Briefly, cells were exposed to 0.05% trypsin for 10 minutes, quenched with serum containing medium, spun down at 800 rpm for 6 minutes, resuspended in a known volume of medium, and counted using a hemocytometer. Cell solution (70 μl) was added to each hydrogel. After 30 minutes, 4 ml of fresh medium was added to each of the wells. After seeding, images of the samples were taken every 2 hours for about 8 hours. Pure NHF microtissues were seeded with about 10,500, about 21,000, about 25,000 or about 35,000 cells/well. Heterotypic microtissues were seeded at ratios of about 1:1, about 2:3, about 1:4; about 1:6, about 1:10, about 1:16, and about 1:20 (NHF:H35). The seeding per well for heterotypic samples was kept constant at about 21,000 cells/well. For TGF-β1 experiments, NHFs and H35s were incubated for 48 hours in DMEM with 10% FBS, 1% penn/strep and 5 ng/ml human recombinant TGF-β1 (Invitrogen, Carlsbad, Calif., USA), passed according to standard protocol, and seeded at about 21,000 cells/well. NHFs^TGF-β1 coseeded with H35s were seeded in DMEM with 10% FBS, 1% penn/strep without additional TGF-β1.
To investigate the effect of paracrine factors, media from homotypic toroids containing about 10,500 H35s and from homotypic toroids containing about 10,500 NHFs was collected. The conditioned media was seeded about 10,500 NHFs with the media collected from the H35s and also seeded about 10,500 H35s with the media collected from the NHFs. Power was analyzed at four hours since this is the time enhanced power for heterotypic toroids which contained about 10,500 H35s and about 10,500 NHFs (1:1 samples).
(§4) Convential view fluorescent and phase images were captured using Carl Zeiss Axio Observer Z1 with an AxioCam Mrm camera (Carl Zeiss MicroImaging, Thornwood, N.Y., USA). To capture side view images, a Mitutoyo FS-110 microscope was modified to lie on its back and a translational stage was added to hold samples. […]
The range of power exerted by increasing numbers of NHFs (>3 fold) in a homotypic environment by seeding the cells into non-adhesive hydrogels with toroid recesses, each with a central cone (65° slope) was measured. […]

[3] = system: NHFs and H35s; test: self-sorting of fluorescently labeled NHFs and H35s in microtissues; format: cell-based, human, rat
Procedure: For sorting experiments, NHFs and H35s were incubated with 2.5 μM CellTracker™ Red CMPTX and CellTracker™ Green CMFDA™ (Invitrogen, Carlsbad, Calif., USA), respectively, in serum free media for 30 minutes. After incubation, the dye was aspirated and the cells equilibrated in serum media for 1 hour prior to passing. For NHF^TGF-β1:H35 sorting experiments NHFs were incubated for 48 hours in DMEM with 10% FBS, 1% penn/strep and 5 ng/ml TGF-β1. After incubation the NHF^TGF-β1 and H35s were fluorescently labeled and passed as previously described.
as §4, with “samples. Samples were imaged in bright field through the eyepiece of the microscope.” for “samples.”
Using self sorting to identify drugs, TGF-β1 is a growth factor linked to fibrosis and well known for its ability to increase cell mediated contraction and synthesis of extracellular matrix proteins such as collagen. […] Also, as self-sorting proceeds the quantity of heterotypic interface decreases and the homotypic interface increases as cells partition. […]

[4] = system: normal human fibroblasts (NHF); test: toroid-on-cone cell power assay, homotypic NHF toroids; format: cell-based
Procedure: as §1, §2
as §3, with “TGF-β1. […]” for “TGF-β1.”
(§5) Convential view fluorescent and phase images were captured using Carl Zeiss Axio Observer Z1 with an AxioCam Mrm camera (Carl Zeiss MicroImaging, Thornwood, N.Y., USA). To capture side view images, a Mitutoyo FS-110 microscope was modified to lie on its back and a translational stage was added to hold samples. Samples were imaged in bright field through the eyepiece of the microscope. ImageJ Software (NIH Rasband, W.S. USA) was used to measure the height of the toroid, the major radius, and the minor radius of the toroid.
(§6) The range of power exerted by increasing numbers of NHFs (>3 fold) in a homotypic environment by seeding the cells into non-adhesive hydrogels with toroid recesses, each with a central cone (65° slope) was measured. Cells settled and formed cell-cell adhesions that drove the toroid shaped microtissue up the cone. The power necessary to move the NHF toroid up the cone as P=ΔW/Δt was calculated, where ΔW is work performed against gravity to move a toroid of a known mass to a given height, and Δt is the time over which the work is performed (9). […] Toroid power increased linearly as cell number increased, but power per NHF (cell power) was independent of cell number, with a peak cell power of 0.22±0.02 fJ/hr (2 hrs) and an average cell power (over all time points) of 0.16±0.03 fJ/hr.

[5] = system: heterotypic toroids of NHFs and H35s; test: toroid-on-cone cell power assay, heterotypic NHF:H35 toroids; format: cell-based, human, rat
Procedure: as §1, §2, §3, §5, §6
The data shown in Table 1 show heterotypic toroids have enhanced power. […]

[6] = H35^TGF-β1 homotypic toroid, 24 hours
[7] = homotypic toroid 100% NHF^TGF-β

Compound: O=C(O)CN(CCN(CC(=O)O)CC(=O)O)CC(=O)O [EDTA]
- microtissue integrity [1]: disintegrated into monodispersed cells

Compound: transforming growth factor-β1 [TGF-β1]
- Toroid Power [2, 6]: 0.45 ± 0.08 pJ/h
- cell power [2, 6]: 0.022 ± 0.004 fJ/h
- change in H35 power compared to untreated controls ([2]; homotypic H35 toroids treated with TGF-β1): doubled
- Toroid Power ([2]; homotypic toroid 100% H35^TGF-β): 0.45 pJ/h
- Enhancement in Toroid Power ([2]; homotypic toroid 100% H35^TGF-β versus control): 0.19 pJ/h
- self-sorting of NHFs and H35s in heterotypic toroids ([3]; NHF^TGF-β1:H35 toroids (1:10), up to 24 hours): prevented sorting; also recorded: reduced; also recorded: sorting was eliminated
- self-sorting of NHFs and H35s in spheroids ([3]; mixes (1:1) of NHFs and H35s treated with TGF-β1): inhibited self-sorting
- height of the NHF^TGF-β1 toroid relative to untreated NHFs ([4]; 2 hours, NHFs treated 48 hours in 5 ng/ml TGF-β1): twice as far; also recorded: increased two fold
- average cell power ([4]; NHF^TGF-β1): 0.16 ± 0.21 fJ/h
- peak cell power ([4]; NHF^TGF-β1, 2 hrs): 0.47 fJ/h
- Toroid Power ([4]; NHF^TGF-β1 homotypic toroid, two hours): 9.82 ± 1.32 pJ/h
- increase in NHF cell power in the homotypic environment ([4]; TGF-β treatment alone): about 1.9 fold
- change in NHF cell power relative to untreated controls (in words) ([4]; homotypic NHF toroids treated with TGF-β1): doubling in cell power; also recorded: increased only two fold; also recorded: doubled; also recorded: doubles cell power
- Enhancement in NHF Cell Power [4, 7]: 0.23 fJ/hr/NHF
- Toroid Power [4, 7]: 9.80 pJ/h
- Enhancement in Toroid Power ([4]; homotypic toroid 100% NHF^TGF-β versus control): 4.7 pJ/h
- Fold Increase in NHF Cell Power ([4]; homotypic toroid 100% NHF^TGF-β, effects of TGF-β alone): 1.9x
- H35 has Enhanced Power ([5]; 1:1 (NHF^TGF-β:H35)): 0.11 fJ/hr per H35
- NHF has Enhanced Power ([5]; 1:1 (NHF^TGF-β:H35)): 0.58 fJ/hr per NHF
- Relative Increase in NHF Cell Power ([5]; 1:1 (NHF^TGF-β:H35)): 2.4x
- Measured Toroid Power ([5]; 1:1 (NHF^TGF-β:H35), at time of peak power, NHFs pretreated 48 hours with 5 ng/ml TGF-β1): 6.05 pJ/h
- Enhanced Toroid Power ([5]; 1:1 (NHF^TGF-β:H35), measured minus projected): 1.16 pJ/h
- Projected Toroid Power ([5]; 1:1 (NHF^TGF-β:H35), power per TGF-β treated NHF x number of NHFs): 4.90 pJ/h
- toroid height relative to respective control ([5]; 1:1 NHF^TGF-β1 mixed with untreated H35s): 1.4 times
- Enhanced Toroid Power ([5]; 1:10 (NHF^TGF-β:H35)): 4.41 pJ/h
- H35 has Enhanced Power ([5]; 1:10 (NHF^TGF-β:H35)): 0.23 fJ/hr per H35
- NHF has Enhanced Power ([5]; 1:10 (NHF^TGF-β:H35)): 5.30 fJ/hr per NHF
- Projected Toroid Power ([5]; 1:10 (NHF^TGF-β:H35)): 0.89 pJ/h
- Relative Increase in NHF Cell Power ([5]; 1:10 (NHF^TGF-β:H35)): 22.1x
- Measured Toroid Power ([5]; 1:10 (NHF^TGF-β:H35), peak power, combination of 6 and 8 hours): 5.30 pJ/h
- toroid height relative to respective control ([5]; 1:10 NHF^TGF-β1 mixed with untreated H35s): 4.4 times
- Enhanced Toroid Power ([5]; 1:20 (NHF^TGF-β:H35)): 3.63 pJ/h
- H35 has Enhanced Power ([5]; 1:20 (NHF^TGF-β:H35)): 0.18 fJ/hr per H35
- NHF has Enhanced Power ([5]; 1:20 (NHF^TGF-β:H35)): 4.13 fJ/hr per NHF
- Projected Toroid Power ([5]; 1:20 (NHF^TGF-β:H35)): 0.47 pJ/h
- Relative Increase in NHF Cell Power ([5]; 1:20 (NHF^TGF-β:H35)): 17.2x
- Measured Toroid Power ([5]; 1:20 (NHF^TGF-β:H35), at time of peak power): 4.10 pJ/h
- toroid height relative to respective control ([5]; 1:20 NHF^TGF-β1 mixed with untreated H35s): 6.3 times
- Enhancement in NHF Cell Power ([5]; 5%:95% (NHF^TGF-β:H35)): 4.13 fJ/hr/NHF
- Enhancement in Toroid Power ([5]; 5%:95% (NHF^TGF-β:H35)): 3.63 pJ/h
- Fold Increase in NHF Cell Power ([5]; 5%:95% (NHF^TGF-β:H35)): 17.2x
- Toroid Power ([5]; 5%:95% (NHF^TGF-β:H35)): 4.10 pJ/h
- Enhancement in NHF Cell Power ([5]; 10%:90% (NHF^TGF-β:H35)): 5.30 fJ/hr/NHF
- Enhancement in Toroid Power ([5]; 10%:90% (NHF^TGF-β:H35)): 4.41 pJ/h
- Toroid Power ([5]; 10%:90% (NHF^TGF-β:H35)): 5.30 pJ/h
- Fold Increase in NHF Cell Power ([5]; 10%:90% (NHF^TGF-β:H35), effects of TGF-β & hetero environment): 22.1x
- Enhancement in NHF Cell Power ([5]; 50%:50% (NHF^TGF-β:H35)): 0.58 fJ/hr/NHF
- Enhancement in Toroid Power ([5]; 50%:50% (NHF^TGF-β:H35)): 1.16 pJ/h
- Fold Increase in NHF Cell Power ([5]; 50%:50% (NHF^TGF-β:H35)): 2.4x
- Toroid Power ([5]; 50%:50% (NHF^TGF-β:H35)): 6.05 pJ/h
- total cell power ([5]; NHF^TGF-β1, about 1:10 mix, between four and eight hours): 5.3 ± 1.32 fJ/h
- peak cell power ([5]; NHF^TGF-β1, about 1:20 mix): 4.13 ± 1.22 fJ/h
- increase in cell power, heterotypic environment and TGF-β1 ([5]; TGF-β1 treated NHFs with untreated H35s, enhanced power distributed to NHFs): 22 ×
- increase in cell power, TGF-β1 treatment in conjunction with the heterotypic environment ([5]; compared to untreated NHFs in a homotypic toroid): greater than 22 times
- increase in NHF cell power, TGF-β1 treatment combined with heterotypic environment ([5]; compared to untreated NHFs in homotypic toroid, 10% NHFs: 90% H35s): about 22.1 fold
- increase of NHF^TGF-β1 cell power in the heterotypic environment ([5]; versus NHF^TGF-β1 in homotypic environment): greater than 11 times

Reference: US9243278B2, “Mechanotransduction by the synergistic action of heterotypic cell interactions” (Brown University, priority 2011, dated 2016)
